# Assay results: US8017168B2, “High-potency sweetener composition with rubisco protein, rubiscolin, rubiscolin derivatives, ace inhibitory peptides, and combinations thereof, and compositions sweetened therewith” (The Coca-Cola Company, priority 2006, dated 2011)
# Ends that are not written are not given here.
# Tests used:
# [1] = Sensory evaluation of sweetness linger by expert panel, Example Set G (citric acid/potassium citrate lemon-lime base); type: in vivo; set-up: key: 0: no sweetness linger; 1: very slight sweetness linger; 2: slight sweetness linger; 3: moderate sweetness linger; 4: moderately high sweetness linger; 5: high sweetness linger; conditions: scale 0-5; for sweetness linger rating of control samples: 400 ppm REBA in citric acid/potassium citrate composition, 8 g sugar in 100 ml citrate buffer; for Sweetness Linger rating (defined anchors of the protocol): sucrose, 500 ppm REBA control sample
# Description: Sensory evaluation of the samples prepared in Example Set G was carried out under the following protocol, similar to that described hereinabove. In this test protocol, none of the samples were swallowed. All samples were expectorated and the mouth was rinsed with water after the tasting. Immediately upon sensing maximal sweetness, the sample was expectorated, the mouth was rinsed with water and the rate of sweetness decay (“Sweetness Linger”) was measured, where attention was focused on the sweetness 3-4 min after the water rinse. After sample tasting was complete, a salty oyster cracker was chewed followed by a water rinse, and at least 5 minutes followed before tasting the next sample. The sweetness linger was rated by a panel of experts in the sensory evaluation of foods and beverages using the following scale: 0=no sweetness linger, 1=very slight sweetness linger, 2=slight sweetness linger, 3=moderate sweetness linger, 4=moderately high sweetness linger, 5=high sweetness linger.
# The “Sweetness Linger” rating for sucrose observed by this protocol is defined as 0. The Sweetness Linger of a 500 ppm of REBA control sample is defined as 5. Experimental samples were tasted by the same protocol, always allowing sufficient time between samples to ensure re-equilibration of the sensory system. Re-tasting of control samples during the course of the experiment was allowed and encouraged.
# The comparison taste test was performed between two controls and addition of sweet taste improving additive on the onset and/or sweetness linger.
# The effects of formulation change on the sweetness linger of 400 ppm REBA (equivalent to 8 g sucrose) in a citric acid/potassium citrate composition equivalent to that in a diet lemon-lime beverage were evaluated. The sweetness linger rating of this solution was determined to be 5.
# 8 g of sugar was dissolved in 100 ml of citrate buffer. The sweetness linger rating of this control sample was determined to be 0.
# [2] = Sensory evaluation of sweetness linger by expert panel, Example Set H (phosphoric acid solution pH 2.4-2.5); type: in vivo; set-up: key: 0: no sweetness linger; 1: very slight sweetness linger; 2: slight sweetness linger; 3: moderate sweetness linger; 4: moderately high sweetness linger; 5: high sweetness linger; conditions: scale 0-5; 500 ppm REBA or 10 g sugar in 100 ml, carbon-treated water, phosphoric acid pH 2.4-2.5
# [3] = tested on: mice; conditions: oral administration, 100 mg per kg; cited from earlier work
# [4] = Rate of dissolution of rebaudioside A polymorph and amorphous forms in H2O at 25° C.; type: physicochemical
# [5] = type: physicochemical
# Description: A solution of rebaudioside A (>97% pure by HPLC) was prepared in double distilled water (12.5 gm in 50 mL, 25% concentration) by stirring the mixture at 40° C. for 5 minutes. An amorphous form of rebaudioside A was formed by immediately using the clear solution for spray drying with the Lab-Plant spray drier SD-04 instrument (Lab-Plant Ltd., West Yorkshire, U.K.). The solution was fed through the feed pump into the nozzle atomizer which atomized it into a spray of droplets with the help of a constant flow of nitrogen/air. […] This dry powder (11-12 g, H2O 6.74%) was discharged continuously from the drying chamber and was collected in a bottle.
Compound,"Rate of dissolution in H2O at 25° C. ([4]; H2O, 25° C.)",Rate of dissolution in H2O at 25° C. ([4]; grade in words),further results
OC[C@H]1O[C@@](CO)(O[C@H]2O[C@H](CO)[C@@H](O)[C@H](O)[C@H]2O)[C@@H](O)[C@@H]1O [sucrose],–,–,sweetness linger rating of control samples [1]: 0; Sweetness Linger rating (defined anchors of the protocol) [1]: 0; sweetness linger rating of control samples [2]: 0
YPLDLF [rubiscolin-6],–,–,memory consolidation [3]: enhanced memory consolidation
rebaudioside A,–,–,sweetness linger rating of control samples [1]: 5; Sweetness Linger rating (defined anchors of the protocol) [1]: 5; sweetness linger rating of control samples [2]: 5

# Continued, in another order:
"Rate of dissolution in H2O at 25° C. ([4]; H2O, 25° C.)",Rate of dissolution in H2O at 25° C. ([4]; grade in words),Compound,further results
(<0.2%/60 %/60 minutes,Very low,rebaudioside A [Form 1],–
(<30%/5 %/5 minutes,Intermediate,rebaudioside A [Form 2],–
(>30%/5 %/5 minutes,High,rebaudioside A [Form 3],–
(>35.0%/5 %/5 minutes,High,rebaudioside A [Form 4],solubility in water at room temperature [5]: > 35.0%
